Data taken from US6420147B1, “Haloalkaliphilic microorganisms” (Genencor International, Inc., priority 1991, dated 2002).
Positions of bridges follow the written chain, without caps; N, C: chain ends. Non-standard residues stand in square brackets, D forms with d. Residues, ends and D or L forms follow the SMILES beside them. *: point of attachment. Ileψ(thiazoline)Cys = CC[C@H](C)[C@H](N)C1=N[C@H](C(=O)*)CS1; dOrn = NCCC[C@@H](N)C(=O)O

Key:
[1] = system: Strain 103Nt.4; test: Antibiotic sensitivity (susceptibility test disks on Medium A agar); assay type: cell-based; conditions: antibiotic disks (contents in Appendix C), 37° C., up to 14 days
Protocol: (§1) A light suspension of bacteria in alkaline, saline, nutrient broth was spread on the surface of alkaline nutrient, saline agar (Medium A) and allowed to dry. Commercially available antibiotic susceptibility test disks (Oxoid or Mast Laboratories: Merseyside, U.K.) were applied to the agar surface. The bacteria were cultivated at 37° C. for up to 14 days. Clear zones around the antibiotic disks indicated sensitivity and were recorded as positive.

[2] = system: Strain 31M.4; test: as above; assay type: cell-based; conditions: antibiotic disks (contents in Appendix C), 37° C., up to 14 days
Protocol: as §1

[3] = system: Strain 86M.4; test: as above; assay type: cell-based; conditions: antibiotic disks (contents in Appendix C), 37° C., up to 14 days
Protocol: as §1

[4] = system: Strain 93dLM.4; test: as above; assay type: cell-based; conditions: antibiotic disks (contents in Appendix C), 37° C., up to 14 days
Protocol: as §1

[5] = system: Strain 95LM.4; test: as above; assay type: cell-based; conditions: antibiotic disks (contents in Appendix C), 37° C., up to 14 days
Protocol: as §1

[6] = system: Strain 98Nt.4; test: as above; assay type: cell-based; conditions: antibiotic disks (contents in Appendix C), 37° C., up to 14 days
Protocol: as §1

[7] = system: Cluster 1 haloalkaliphilic bacteria; test: Antibiotic sensitivity, distribution of positive characters; assay type: cell-based; conditions: share of strains of cluster 1 (78.5% similarity level, SSM) scored positive = clear zone around antibiotic disk; Medium A agar, 37° C., up to 14 days
Protocol: as §1

[8] = system: Cluster 2 haloalkaliphilic bacteria; test: as above; assay type: cell-based; conditions: share of strains of cluster 2 (78.5% similarity level, SSM) scored positive = clear zone around antibiotic disk; Medium A agar, 37° C., up to 14 days
Protocol: as §1

[9] = system: Cluster 3 haloalkaliphilic bacteria; test: as above; assay type: cell-based, haloalkaliphilic eubacteria; conditions: share of strains of cluster 3 (78.5% similarity level, SSM) scored positive = clear zone around antibiotic disk; Medium A agar, 37° C., up to 14 days
Protocol: as §1

[10] = system: Cluster 4 haloalkaliphilic bacteria; test: as above; assay type: cell-based, haloalkaliphilic eubacteria; conditions: share of strains of cluster 4 (78.5% similarity level, SSM) scored positive = clear zone around antibiotic disk; Medium A agar, 37° C., up to 14 days
Protocol: as §1

[11] = system: Strain 931LM.4; test: Antibiotic sensitivity (susceptibility test disks on Medium A agar); assay type: cell-based; conditions: antibiotic disks (contents in Appendix C), 37° C., up to 14 days
Protocol: as §1

Row | Compound | Inhibition of growth by antibiotic [1] | Inhibition of growth by antibiotic [2] | Inhibition of growth by antibiotic [3] | Inhibition of growth by antibiotic [4] | Inhibition of growth by antibiotic [5] | Inhibition of growth by antibiotic [6] | Distribution of positive characters: antibiotic sensitivity, Cluster 1 [7] | Distribution of positive characters: antibiotic sensitivity, Cluster 2 [8] | Distribution of positive characters: antibiotic sensitivity, Cluster 3 [9] | Distribution of positive characters: antibiotic sensitivity, Cluster 4 [10] | Inhibition of growth by antibiotic [11]
1 | CC[C@H](C)[C@H](N)C1=N[C@H](C(=O)N[C@@H](CC(C)C)C(=O)N[C@H](CCC(=O)O)C(=O)N[C@H](C(=O)N[C@H]2CCCCNC(=O)[C@H](CC(N)=O)NC(=O)[C@@H](CC(=O)O)NC(=O)[C@H](Cc3cnc[nH]3)NC(=O)[C@@H](Cc3ccccc3)NC(=O)[C@H]([C@@H](C)CC)NC(=O)[C@@H](CCCN)NC2=O)[C@@H](C)CC)CS1 [bacitracin] ({Ileψ(thiazoline)Cys}-L[dE]IK[dOrn]I[dF]H[dD]N; lactam 4-C) | not inhibited | not inhibited | inhibited | inhibited | inhibited | inhibited | 100 | 82 | 100 | 100 | 
2 | NC[C@H]1O[C@H](O[C@H]2[C@H](O)[C@@H](O[C@H]3O[C@H](CO)[C@@H](O)[C@H](N)[C@H]3O)[C@H](N)C[C@@H]2N)[C@H](O)[C@@H](O)[C@@H]1O [kanamycin] |  |  | not inhibited | not inhibited | not inhibited | not inhibited | 0 | 0 | 0 | 17 | 
3 | O=C1CN(/N=C/c2ccc([N+](=O)[O-])o2)C(=O)N1 [nitrofurantoin] |  |  |  |  |  |  |  |  |  |  | not inhibited
4 | CO[C@H]1C[C@H](O[C@H]2[C@H](C)[C@@H](O[C@@H]3O[C@H](C)C[C@H](N(C)C)[C@H]3O)[C@@H](C)C[C@@]3(CO3)C(=O)[C@H](C)[C@@H](O)[C@@H](C)[C@@H](C)OC(=O)[C@@H]2C)O[C@@H](C)[C@@H]1O [oleandomycin] | not inhibited | inhibited | not inhibited | inhibited | inhibited | not inhibited | 0 | 0 | 100 | 100 | 
5 | CO[C@H]1/C=C/O[C@@]2(C)Oc3c(C)c(O)c4c(O)c(c(/C=N/N5CCN(C)CC5)c(O)c4c3C2=O)NC(=O)/C(C)=C\C=C\[C@H](C)[C@H](O)[C@@H](C)[C@@H](O)[C@@H](C)[C@H](OC(C)=O)[C@@H]1C [rifampicin] | not inhibited | not inhibited | not inhibited |  |  |  | 14 | 64 | 67 | 83 | 
6 | Cc1cc(NS(=O)(=O)c2ccc(N)cc2)no1 [sulphamethoxazole] | inhibited | not inhibited |  |  |  |  |  |  |  |  | 
7 | CN(C)[C@@H]1C(O)=C(C(N)=O)C(=O)[C@@]2(O)C(O)=C3C(=O)c4c(O)cccc4[C@@](C)(O)[C@H]3C[C@@H]12 [tetracycline] |  |  | not inhibited | not inhibited | not inhibited | not inhibited | 14 | 9 | 33 | 17 | 
8 | COc1cc(Cc2cnc(N)nc2N)cc(OC)c1OC [trimethoprim] | inhibited | not inhibited |  |  |  |  |  |  |  |  | not inhibited
9 | CN[C@H](CC(C)C)C(=O)N[C@H]1C(=O)N[C@@H](CC(N)=O)C(=O)N[C@H]2C(=O)N[C@H]3C(=O)N[C@H](C(=O)N[C@H](C(=O)O)c4cc(O)cc(O)c4-c4cc3ccc4O)[C@H](O)c3ccc(c(Cl)c3)Oc3cc2cc(c3O[C@@H]2O[C@H](CO)[C@@H](O)[C@H](O)[C@H]2O[C@H]2C[C@](C)(N)[C@H](O)[C@H](C)O2)Oc2ccc(cc2Cl)[C@H]1O [vancomycin] | not inhibited |  | not inhibited | inhibited | inhibited | not inhibited | 0 | 0 | 100 | 83 | 
10 | Gentamycin |  |  |  |  |  |  | 0 | 0 | 67 | 50 | 
11 | neomycin | inhibited |  | not inhibited | not inhibited | not inhibited | not inhibited | 0 | 0 | 0 | 0 | 
12 | polymixin | inhibited | not inhibited | not inhibited | not inhibited | not inhibited | not inhibited | 0 | 0 | 0 | 0 | 
